Results as given in patent publication US20090042726A1, “Novel Herbicides” (SYNGENTA LIMITED, priority 2005, published 2009).

Tested on: Monocotyledonous and dicotyledonous test plants
Assay: Herbicidal action, application pre-emergence (Example B1)
Assay type: in vivo
Design: key: 10=total damage to plant; 0=no damage to plant
Settings: 1000 g/ha, evaluated after 9 or 13 days; for AGSTE herbicidal action (damage score 0-10): Agrostis-tenius; for AMARE herbicidal action (damage score 0-10): Amaranthus retroflexus; for DIGSA herbicidal action (damage score 0-10): Digitaria sanguinalis; for POATR herbicidal action (damage score 0-10): Poa trivialis; for SETIT herbicidal action (damage score 0-10): Setaria italica
Procedure: Monocotyledonous and dicotyledonous test plants were sown in sterilised standard soil in seed trays each having 96 cells. After one day (pre-emergence) under controlled conditions in a climatic chamber (cultivation at 23/17° C., day/night; 13 hours light; 50-60% humidity; after application at 24/19° C., day/night), the plants were treated with an aqueous spray solution of 1000 mg/l of the active ingredient used (including 10% DMSO as solvent). The plants were grown on in the climatic chamber until the test was evaluated (10=total damage to plant, 0=no damage to plant) after 9 or 13 days.

Row | Compound | AGSTE herbicidal action (damage score 0-10) | AMARE herbicidal action (damage score 0-10) | DIGSA herbicidal action (damage score 0-10) | POATR herbicidal action (damage score 0-10) | SETIT herbicidal action (damage score 0-10)
1 | C#CCn1cc(CS(=O)(=O)C2=NOC(C)(C)C2F)c(C(F)(F)F)n1 (stereo not drawn) [2.50] | 10 | 10 | 10 | 10 | 
2 | CC1(C)ON=C([S+]([O-])Cc2cccnc2Cl)C1F (mixture of isomers) [3.05] | 9 | 10 | 8 | 10 | 
3 | CC1(C)ON=C(S(=O)(=O)Cc2ccccc2OC(F)(F)F)C1F (stereo not drawn) [1.11] | 10 | 7 | 10 | 10 | 8
4 | Cc1nc(C[S+]([O-])C2=NOC(C)(C)C2F)n(C)n1 (single isomer, unassigned) [8.02] | 10 | 4 | 10 | 10 | 
5 | Cc1nn(C)c(OCC(F)(F)F)c1C[S+]([O-])C1=NOC(C)(C)C1F (single isomer, unassigned) [2.61] | 10 | 6 | 9 | 4 | 
6 | CCc1nn(C)nc1CSC1=NOC(C)(C)C1F (stereo not drawn) [Compound No. 7.31] | 9 | 0 | 7 | 0 | 
7 | COc1ncc(CS(=O)(=O)C2=NOC(C)(C)C2F)c(C(F)(F)F)n1 (stereo not drawn) [5.03] | 10 | 10 | 8 | 10 | 
8 | CC(Oc1c(CS(=O)(=O)C2=NOC(C)(C)C2F)c(C(F)(F)F)nn1C)C(F)(F)F (mixture of isomers) [2.37] | 10 | 8 | 9 | 10 | 9
9 | Cn1nc(C(F)(F)F)c(C[S+]([O-])C2=NOC(C)(C)C2F)c1OCC(F)(F)F (mixture of isomers) [2.08] | 10 | 10 | 10 | 10 | 10
10 | COc1ncc(C[S+]([O-])C2=NOC(C)(C)C2F)c(C(F)(F)F)n1 (stereo not drawn) [5.02] | 10 | 10 | 10 | 10 | 
11 | Cn1nc(OC(F)F)c(C[S+]([O-])C2=NOC(C)(C)C2F)c1C(F)(F)F (single isomer, unassigned) [2.30] | 10 | 9 | 10 | 9 | 9
12 | Cn1nc(C[S+]([O-])C2=NOC(C)(C)C2F)c(C(F)(F)F)n1 (stereo not drawn) [7.43] | 10 | 10 | 10 | 10 | 
13 | CCn1ncc(C[S+]([O-])C2=NOC(C)(C)C2F)n1 (mixture of isomers) [7.35] | 10 | 8 | 9 | 9 | 
14 | Cc1nn(C)nc1C[S+]([O-])C1=NOC(C)(C)C1F (single isomer, unassigned) [7.02] | 10 | 0 | 9 | 10 | 9
15 | Cn1nc(C(F)(F)F)c(C[S+]([O-])C2=NOC(C)(C)C2F)c1OC(F)F (single isomer, unassigned) [2.24] | 10 | 10 | 10 | 10 | 10
16 | C=CCn1cc(C[S+]([O-])C2=NOC(C)(C)C2F)c(C(F)(F)F)n1 (mixture of isomers) [2.52] | 10 | 9 | 9 | 9 | 
17 | Cn1nc(OC(F)F)cc1CS(=O)(=O)C1=NOC(C)(C)C1F (stereo not drawn) [6.10] | 10 | 7 | 0 | 9 | 
18 | Cn1nc(C(F)(F)F)c(CSC2=NOC(C)(C)C2F)c1F (stereo not drawn) [Compound No. 2.54] | 10 | 9 | 6 | 10 | 
19 | CC1(C)ON=C(S(=O)(=O)Cc2c(F)cccc2F)C1F (stereo not drawn) [1.17] | 10 | 10 | 8 | 10 | 8
20 | Cn1cc(C(F)(F)F)c(C[S+]([O-])C2=NOC(C)(C)C2F)n1 (mixture of isomers) [4.02] | 10 | 9 | 9 | 10 | 9
21 | Cc1nn(C(C)C)nc1C[S+]([O-])C1=NOC(C)(C)C1F (mixture of isomers) [7.38] | 10 | 6 | 7 | 7 | 
22 | Cn1nc(OCC(F)(F)F)c(C[S+]([O-])C2=NOC(C)(C)C2F)c1C(F)(F)F (single isomer, unassigned) [2.42] | 0 | 8 | 8 | 8 | 8
23 | Cn1nc(C(F)(F)F)c(CS(=O)(=O)C2=NOC(C)(C)C2F)c1F (stereo not drawn) [2.56] | 10 | 10 | 10 | 10 | 
24 | Cc1nn(C(C)C)nc1CS(=O)(=O)C1=NOC(C)(C)C1F (stereo not drawn) [7.39] | 10 | 8 | 9 | 8 | 
25 | Cn1nc(C(F)(F)F)c(C[S+]([O-])C2=NOC(C)(C)C2Cl)c1OC(F)F (mixture of isomers) [2.17] | 10 | 6 | 10 | 10 | 9
26 | COCCn1nc(CSC2=NOC(C)(C)C2F)c(C(F)(F)F)n1 (stereo not drawn) [Compound No. 7.18] | 7 | 8 | 8 | 0 | 
27 | Cn1nc(CS(=O)(=O)C2=NOC(C)(C)C2F)c(C(F)(F)F)c1C#N (stereo not drawn) [4.09] | 10 | 9 | 7 | 4 | 
28 | Cn1nc(OC(F)F)c(CS(=O)(=O)C2=NOC(C)(C)C2F)c1C(F)(F)F (stereo not drawn) [2.31] | 10 | 10 | 10 | 10 | 10
